Reference: US7759345B2, “Antitumoral derivatives of ET-743” (priority 2001, dated 2010)

Experiments:
A-549 [1] = test: Inhibition of cells growth by colorimetric assay (SRB), A-549; format: cell-based; settings: SRB, 48 hours exposure; for GI50 / LC50 (concentration for 50% cell killing): Homo sapiens, A549, 48 h; for A-549 TGI / GI50: A-549; for GI50: read-out: A-549 GI50; for LC50 (concentration for 50% cell killing): read-out: A-549 LC50, A-549
In short: (§1)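 Human cancer and endothelial lines are seeded at 5×10^3 cells per well and, after 18 h, treated for 48 h with compound dissolved in DMSO/EtOH/PBS (0.5:0.5:99) at 10 to 10^−8 μg/ml. Cell mass is quantified by SRB staining (OD 490 nm), and growth inhibition, total growth inhibition and cell kill are calculated from triplicate wells.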

HT-29 [2] = test: Inhibition of cells growth by colorimetric assay (SRB), HT-29; format: cell-based; settings: SRB, 48 hours exposure; for GI50 / LC50 (concentration for 50% cell killing): Homo sapiens, HT-29, 48 h; for HT-29 TGI / GI50: HT-29; for GI50: read-out: HT-29 GI50; for LC50 (concentration for 50% cell killing): read-out: HT-29 LC50, HT-29
In short: as §1

A-549 [3] = test: Inhibition of cell growth by counting cells, A-549; format: cell-based, human; settings: Homo sapiens, A549, 72 h; three days of incubation; read-out: IC50 (molar) A-549
In short: (§2)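 Human tumor cells were seeded at 1×10^4 cells per well in EMEM with 5% FCS containing graded compound concentrations, in duplicate, and incubated three days at 37° C, 5% CO2. Cells were then trypsinized and counted electronically; IC50 came from dose-response curves of percent growth versus drug-free controls.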

HT-29 [4] = test: Inhibition of cell growth by counting cells, HT-29; format: cell-based, human; settings: Homo sapiens, HT-29, 72 h; three days of incubation; read-out: IC50 (molar) HT-29
In short: as §2

Text for Heart: (§3) Toxicity was asssessed by the methods reported in Toxicology in Vitro, 15 (2001) 571-577, J. Luber Narod et al.: “Evaluation of the use of in vitro methodolodies as tools for screening new compounds for potential in vivo toxicity”.
Text for Kidney: as §3
Text for Liver: as §3
Text for Myelo: as §3
Text for Skeletal: as §3

Row | SMILES | A-549 TGI (A-549 [1]) | GI50 (A-549 [1]) | LC50 (concentration for 50% cell killing) (A-549 [1]) | HT-29 TGI (HT-29 [2]) | GI50 (HT-29 [2]) | LC50 (concentration for 50% cell killing) (HT-29 [2]) | Toxicity Data Liver (Liver) | Toxicity Data Heart (Heart) | Toxicity Data Myelo (Myelo) | Toxicity Data Skeletal (Skeletal) | Toxicity Data Kidney (Kidney) | IC50 (A-549 [3]) | IC50 (HT-29 [4])
1 | C=COC(=O)Oc1cc2c(cc1OC)[C@@]1(CS[C@@H]3c4c(OC(C)=O)c(C)c5c(c4[C@H](COC1=O)N1C3[C@H]3c4c(cc(C)c(OC)c4OC(=O)OC=C)C[C@@H]([C@@H]1O)N3C)OCO5)NCC2 (stereo partly drawn) [Compound 92] | 7.77E-09 | 3.33 nM | 33.3 nM | 1.11E-09 | 1.11 nM | 55.5 nM | 2.30E-08 | 2.80E-08 | 1.92E-08 | 1.21E-08 | 1.35E-08 |  | 
2 | COc1cc2c(cc1O)CCN[C@]21CS[C@@H]2c3c(OC(C)=O)c(C)c4c(c3[C@H](COC1=O)N1C2[C@H]2c3c(cc(C)c(OC)c3OC)C[C@@H]([C@@H]1O)N2C)OCO4 (stereo partly drawn) [Compound 98] |  |  |  |  |  |  | 4.21E-08 | 4.98E-08 | 3.79E-08 | 1.24E-08 | 1.08E-06 | 0.129 nM | 0.129 nM
3 | C=COC(=O)Oc1cc2c(cc1OC)[C@@]1(CS[C@@H]3c4c(OC(C)=O)c(C)c5c(c4[C@H](COC1=O)N1C3[C@H]3c4c(cc(C)c(OC)c4OC(=O)OC=C)C[C@@H]([C@@H]1O)N3C)OCO5)N(C(=O)OC=C)CC2 (stereo partly drawn) [Compound 99] | 9.96E-08 | 43.5 nM | 10300 nM | 1.03E-07 | 34.3 nM | 10300 nM | 4.80E-08 | 1.13E-07 | 1.45E-07 | 9.71E-08 | 2.56E-08 |  | 
4 | CCCC(=O)Oc1c(C)c2c(c3c1[C@H]1SC[C@]4(NCCc5cc(O)c(OC)cc54)C(=O)OC[C@@H]3N3C1[C@H]1c4c(cc(C)c(OC)c4O)C[C@@H]([C@@H]3O)N1C)OCO2 (stereo partly drawn) [Compound 163] | 2.53E-09 | 0.38 nM | 8.86 nM | 1.14E-09 | 0.38 nM | 3.8 nM | 9.80E-07 | 4.80E-07 | 2.38E-07 | 2.53E-06 | 6.33E-07 |  | 
5 | C=CCOC(=O)Oc1c(C)c2c(c3c1[C@H]1SC[C@]4(NCCc5cc(O)c(OC)cc54)C(=O)OC[C@@H]3N3C1[C@H]1c4c(cc(C)c(OC)c4O)C[C@@H]([C@@H]3O)N1C)OCO2 (stereo partly drawn) [Compound 165] | 3.73E-10 | 0.124 nM | 1.24 nM | 3.73E-10 | 0.249 nM | 0.995 nM | 1.68E-08 | 2.79E-08 | 2.87E-08 | 1.47E-08 | 1.89E-08 |  | 
